Source: US7638538B1, “Pharmaceutically active sulfonyl amino acid derivatives” (Laboratoires Serono S.A., priority 1999, dated 2009)

Experiments:
Assay type in all cases: biochemical
p38 = p38 (Homo sapiens, UniProt Q16539); assay: p38 in vitro kinase assay (SPA, GST-ATF2 substrate)
Description: (§1) JNK 2 and 3 in vitro assays: JNK 2 and/or 3 assays are performed 96 well MTT plates, by incubation of 0.5 μg of recombinant, pre-activated GST-JNK2 with 1 μg of recombinant, biotinylated GST-c-Jun and 2 μM ^33γ-ATP (2 nCi/μl), in the presence or absence of sulfonyl amino acid inhibitors and in a reaction volume of 150 μl containing 50 mM Tris-HCl, pH 8.0; 10 mM MgCl2; 1 mM Dithiothreitol, and 100 μM NaVO4. The incubation is carried for 120 min. at R.T and stopped up by addition of 200 μl of a solution containing 250 μg of Streptavidine-coated SPA beads (Amersham, Inc.)*, 5 mM EDTA, 0.1% Trinton X-100 and 50 μM ATP, in phosphate saline buffer. After incubation for 60 minutes at RT, beads are sedimented by centrifugation at 1500×g for 5 minutes, resuspended in 200 μl of PBS containing 5 mM EDTA, 0.1% Triton X-100 and 50 μM ATP and the radioactivity measured in a scintillation β counter, following sedimentation of the beads as described above. By substituting GST-c-Jun for biotinylated GST-1ATF2 or myelin basic protein, this assay can be used to measure inhibition of preactivated p38 and ERK MAP Kinases, respectively.

ERK2 = ERK2 (Homo sapiens, UniProt P28482); assay: ERK2 in vitro kinase assay (SPA, myelin basic protein substrate)
Description: as §1

GST-JNK2 = GST-JNK2 (Homo sapiens, UniProt P45984); assay: JNK2 in vitro kinase assay (SPA, GST-c-Jun substrate)
Description: as §1

JNK3 = JNK3 (Homo sapiens, UniProt P53779); assay: JNK3 in vitro kinase assay (SPA, GST-c-Jun substrate)
Description: as §1

Chain of GST-JNK2 (P45984 whole entry): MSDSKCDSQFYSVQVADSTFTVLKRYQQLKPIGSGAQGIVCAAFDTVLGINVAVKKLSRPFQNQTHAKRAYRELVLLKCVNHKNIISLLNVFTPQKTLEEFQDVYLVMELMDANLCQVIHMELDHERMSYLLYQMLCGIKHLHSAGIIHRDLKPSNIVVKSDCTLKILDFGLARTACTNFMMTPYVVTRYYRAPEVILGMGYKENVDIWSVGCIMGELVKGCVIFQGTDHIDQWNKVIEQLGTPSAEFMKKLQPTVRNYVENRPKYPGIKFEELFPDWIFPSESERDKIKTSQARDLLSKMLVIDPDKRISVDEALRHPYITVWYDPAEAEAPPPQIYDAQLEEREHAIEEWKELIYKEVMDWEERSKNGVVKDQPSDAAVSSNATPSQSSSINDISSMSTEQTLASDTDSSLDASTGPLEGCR
Chain of ERK2 (P28482 whole entry, species assumed): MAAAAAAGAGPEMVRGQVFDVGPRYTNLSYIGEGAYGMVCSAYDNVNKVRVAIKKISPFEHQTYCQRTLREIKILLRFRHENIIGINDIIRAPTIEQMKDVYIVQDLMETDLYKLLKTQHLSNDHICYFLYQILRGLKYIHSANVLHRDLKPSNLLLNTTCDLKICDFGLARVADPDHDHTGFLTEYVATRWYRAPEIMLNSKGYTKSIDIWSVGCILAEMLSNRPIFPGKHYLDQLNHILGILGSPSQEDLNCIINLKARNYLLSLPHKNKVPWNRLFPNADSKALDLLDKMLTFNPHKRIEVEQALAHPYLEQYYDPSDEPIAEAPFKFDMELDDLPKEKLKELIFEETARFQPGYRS
Chain of p38 (Q16539 whole entry): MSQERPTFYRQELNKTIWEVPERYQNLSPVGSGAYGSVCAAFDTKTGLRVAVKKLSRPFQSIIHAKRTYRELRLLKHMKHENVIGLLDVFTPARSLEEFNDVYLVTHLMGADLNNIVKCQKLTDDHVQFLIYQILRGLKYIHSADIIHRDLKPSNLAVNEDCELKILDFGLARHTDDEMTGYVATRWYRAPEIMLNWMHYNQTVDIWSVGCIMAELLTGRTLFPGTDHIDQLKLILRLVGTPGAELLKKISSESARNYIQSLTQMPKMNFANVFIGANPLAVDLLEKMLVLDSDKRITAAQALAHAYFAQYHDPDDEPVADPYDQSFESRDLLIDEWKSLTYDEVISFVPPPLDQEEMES
Chain of JNK3 (P53779 whole entry, species assumed): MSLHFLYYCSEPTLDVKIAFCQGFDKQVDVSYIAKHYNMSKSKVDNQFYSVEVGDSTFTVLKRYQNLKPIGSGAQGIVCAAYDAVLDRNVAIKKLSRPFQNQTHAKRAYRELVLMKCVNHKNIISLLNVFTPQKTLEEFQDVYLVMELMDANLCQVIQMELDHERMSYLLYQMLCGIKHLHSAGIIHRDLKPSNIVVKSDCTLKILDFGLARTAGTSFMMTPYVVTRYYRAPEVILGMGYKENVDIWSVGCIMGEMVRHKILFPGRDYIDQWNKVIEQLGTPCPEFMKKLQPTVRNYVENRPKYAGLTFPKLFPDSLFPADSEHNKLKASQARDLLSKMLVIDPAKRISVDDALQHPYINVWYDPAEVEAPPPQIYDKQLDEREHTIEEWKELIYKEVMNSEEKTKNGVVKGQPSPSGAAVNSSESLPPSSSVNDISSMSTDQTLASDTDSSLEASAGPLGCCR

Row | Structure (SMILES) | IC50 (p38) [nM] | IC50 (ERK2) [nM] | IC50 (GST-JNK2) [nM] | IC50 (JNK3) [nM]
1 | O=C(CNS(=O)(=O)c1ccc(CNC(=O)c2ccc(Cl)cc2)s1)Nc1cccc(S(=O)(=O)C(F)(F)F)c1 [Example 6, 4-chloro-N-[(5-{[(2-oxo-2-{3-[(trifluoromethyl)sulfonyl]anilino)ethyl)amino]sulfonyl}thien-2-yl)methyl]benzamide] | > 30000 | > 30000 | 1300 | 640
2 | O=C(CNS(=O)(=O)c1ccc(CNC(=O)c2ccc(Cl)cc2)s1)NCCNc1ncc(C(F)(F)F)cc1Cl [Example 1, 4chloro-N-({5-[({2-[(2-{[3-chloro-5-(trifluoromethyl)pyridin-2-yl]amino}ethyl)amino]-2-oxoethyl}amino)sulfonyl]thien-2-yl}methyl)benzamide] | > 30000 | > 30000 | 2700 | 1200
